In patent publication US10774064B2 (Cadent Therapeutics, Inc., priority 2016, dated 2020):
Read-outs that look alike come from different tables or passages of the source.

Columns and labels:
[1] = molecular target: T1, small-conductance Ca2+-activated K+ channels (SK channels, subtype 2) (Homo sapiens, UniProt Q9H2S1); assay: whole-cell patch-clamp of ionic current through SK2 channels in HEK293 cells (SC100); assay type: cell-based; conditions: for SC100 (μM): whole-cell patch-clamp, HEK293 cells expressing SK2 channels, concentration that increases the basal current by 100%
T1 construct: expressed in transfected cells; host or cells: HEK293
Summary of the method: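 Whole-cell patch-clamp recording of current in HEK293 cells expressing SK2 channels. SC100 is the compound concentration that increases basal current by 100%.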

[2] = tested on: harmaline induced tremor; assay: harmaline induced tremor in rats; assay type: in vivo, Male Sprague Dawley rats
Method: Immediately following harmaline injection, animals were placed in the tremor quantification apparatus and tremor events were quantified for 60 minutes. A tremor event signal was generated when a small metal transmitter band fitted to the right forepaw of the animal moved within the electromagnetic field generated by a loop antenna within the testing apparatus. Outputs from the amplifier were digitized at a sampling rate of 1,000 Hz and the signal was processed and analyzed using LabView software (National Instruments). To minimize signal from ambulatory and grooming behavior, the signal was filtered with a 128-ms nonweigthed moving average filter, and events with amplitudes >0.5 V and lasting >300 ms in duration were counted as a tremor event. Data were analyzed in one-minute bins over the course of the test and presented as the sum of tremor events over the entire 60 minute test.

[3] = brain concentration by mass spectrometry from brains harvested after tremor recording; free brain concentration and % SK2 SC100; assay type: in vivo, Male Sprague Dawley rats; conditions: male, Sprague Dawley, rat, oral, 30 mg/Kg
Description: The amount of free compound is then expressed in terms of its potency against the SK2 channel as follows: % SK2 SC100=CFB/SK2 SC100×100, where SK2 SC100 (Table 3, “SK2 SC100”) is the measured value of potency of the compound against SK2 channels and % SK2 SC100 (Table 3, “% SK2 SC100”) is the free brain concentration (CFB) normalized to SK2 SC100. Thus the % SK2 SC100 gives a measure of the degree to which each of the compounds is modulating SK2 channels regardless of differences in potency or exposure. Values are given in […]

Structure (SMILES): Cc1ccn(-c2nc(NC3CCC(F)(F)CC3)cc(N3CCOCC3)n2)n1 [Compound 359, N-(4,4-difluorocyclohexyl)-2-(3-methyl-1H-pyrazol-1-yl)-6-morpholinopyrimidin-4-amine]
- Measured SK2 SC100 ([1]; potency against SK2 channels): 0.5 µM
- inhibition of tremors (sum of tremor events over 60 minutes) ([2]; 30 mg/Kg oral, 30 minutes prior to harmaline injection, FIG. 1): significant inhibition of tremors
- Minimally Efficacious Dose ([2]; oral administration 30 minutes prior to harmaline injection, rats): 30 mg/kg
- concentration at 90 min ([3]; CFB=CMB×BFF, read-out: Calculated Free Brain Concentration): 80 nM
- concentration at 90 min ([3]; brains harvested immediately following tremor recording, mass spectrometry, at minimally efficacious dose, read-out: Measured Brain Concentration): 1300 nM

Structure (SMILES): FC1(F)CCC(Nc2cc(N3CCOCC3)nc(-n3ccc(-c4ccccc4)n3)n2)CC1 [NSSy7034]
- SC100 (μM) [1]: + (+ means >1 uM)

Structure (SMILES): COc1cnc(-n2nc(C)c(F)c2C)nc1NC1CCC(F)(F)CC1 [NSSy7042]
- SC100 (μM) [1]: + (+ means >1 uM)

Structure (SMILES): Cc1nc(NC2CCC(F)(F)CC2)nc(-n2ccc(C3CC3)n2)n1 [NSSy7043, 4-(3-cyclopropyl-1H-pyrazol-1-yl)-N-(4,4-difluorocyclohexyl)-6-methyl-1,3,5-triazin-2-amine]
- SC100 (μM) [1]: + (+ means >1 uM)

Structure (SMILES): Cc1cc(C)n(-c2cc(C(O)Cc3cnn(C)n3)cc(NC3CCC(F)(F)CC3)n2)n1 (centres unmarked) [NSSy7053, 1-(2-((4,4-difluorocyclohexyl)amino)-6-(3,5-dimethyl-1H-pyrazol-1-yl)pyridin-4-yl)-2-(2-methyl-2H-1,2,3-triazol-4-yl) ethan-1-ol]
- SC100 (μM) [1]: ++ (++ means 200 nM-1000 nM)

Structure (SMILES): COc1cnc(-n2ccc(C)n2)nc1NC1CCC(F)(F)CC1 [NSSy7055]
- SC100 (μM) [1]: + (+ means >1 uM)

Structure (SMILES): Cc1cc(NC2CCC(F)(F)CC2)nc(-n2ccc(OC(F)F)n2)n1 [NSSy7059, N-(4,4-difluorocyclohexyl)-2-(3(difluoromethoxy)-1H-pyrazol-1-yl)-6-methylpyrimidin-4-amine]
- SC100 (μM) [1]: ++ (++ means 200 nM-1000 nM)

Structure (SMILES): COc1cc(NC2CCC(F)(F)CC2)nc(-n2nc(C)c(F)c2C)n1 [NSSy7062]
- SC100 (μM) [1]: ++ (++ means 200 nM-1000 nM)

Structure (SMILES): COc1cnc(-n2ccc(C3CC3)n2)nc1NC1CCC(F)(F)CC1 [NSSy7063]
- SC100 (μM) [1]: + (+ means >1 uM)

Structure (SMILES): Cc1ccn(-c2cc(C(O)Cc3cnn(C)n3)cc(NC3CCC(F)(F)CC3)n2)n1 (centres unmarked) [NSSy7064]
- SC100 (μM) [1]: ++ (++ means 200 nM-1000 nM)

Structure (SMILES): Cc1ccn(-c2cc(C(O)Cc3cnnn3C)cc(NC3CCC(F)(F)CC3)n2)n1 (centres unmarked) [NSSy7065, 1-(2-((4,4-difluorocyclohexyl)amino)-6-(3-methyl-1H-pyrazol-1-yl)pyridin-4-yl)-2-(1-methyl-1H-1,2,3-triazol-5-yl) ethan-1-ol]
- SC100 (μM) [1]: ++ (++ means 200 nM-1000 nM)

Structure (SMILES): Cc1ccn(-c2cc(C(O)Cc3cn(C)nn3)cc(NC3CCC(F)(F)CC3)n2)n1 (centres unmarked) [NSSy7079, 1-(2-((4,4-difluorocyclohexyl)amino)-6-(3-methyl-1H-pyrazol-1-yl)pyridin-4-yl)-2-(1-methyl-1H-1,2,3-triazol-4-yl)ethan-1-ol]
- SC100 (μM) [1]: ++ (++ means 200 nM-1000 nM)

Structure (SMILES): Oc1ccn(-c2nc(NC3CCC(F)(F)CC3)cc(N3CCOCC3)n2)n1 [NSSy7087, 1-(4-((4,4-difluorocyclohexyl)amino)-6-morpholinopyrimidin-2-yl)-1H-pyrazol-3-ol]
- SC100 (μM) [1]: + (+ means >1 uM)
